Molecules are shown by their SMILES.

Consider four molecules from article PMC12823391 (Nature, 2025).

The target in experiment [1] is T1, MBP–NLRX1 (87–975 amino acids) (Homo sapiens, UniProt Q86UT6). Nature of the experiment: competition of AcCoA with biotin-AcCoA pull-down, immunoblot. The settings on record: unlabelled AcCoA as competitor. In kind it is binding. In general terms: In western blotting, separated proteins are transferred to a membrane and probed.
The target in experiment [2] is endogenous NLRX1 (HeLa cell lysate) (Homo sapiens, UniProt Q86UT6). In words: cellular thermal shift assay on lysate, immunoblot. Conditions: 500 µM AcCoA, 44.6-65 °C, 3 min. The experiment is classed as biochemical.
endogenous NLRX1 (HeLa cell lysate), sequence (Q86UT6 87-975): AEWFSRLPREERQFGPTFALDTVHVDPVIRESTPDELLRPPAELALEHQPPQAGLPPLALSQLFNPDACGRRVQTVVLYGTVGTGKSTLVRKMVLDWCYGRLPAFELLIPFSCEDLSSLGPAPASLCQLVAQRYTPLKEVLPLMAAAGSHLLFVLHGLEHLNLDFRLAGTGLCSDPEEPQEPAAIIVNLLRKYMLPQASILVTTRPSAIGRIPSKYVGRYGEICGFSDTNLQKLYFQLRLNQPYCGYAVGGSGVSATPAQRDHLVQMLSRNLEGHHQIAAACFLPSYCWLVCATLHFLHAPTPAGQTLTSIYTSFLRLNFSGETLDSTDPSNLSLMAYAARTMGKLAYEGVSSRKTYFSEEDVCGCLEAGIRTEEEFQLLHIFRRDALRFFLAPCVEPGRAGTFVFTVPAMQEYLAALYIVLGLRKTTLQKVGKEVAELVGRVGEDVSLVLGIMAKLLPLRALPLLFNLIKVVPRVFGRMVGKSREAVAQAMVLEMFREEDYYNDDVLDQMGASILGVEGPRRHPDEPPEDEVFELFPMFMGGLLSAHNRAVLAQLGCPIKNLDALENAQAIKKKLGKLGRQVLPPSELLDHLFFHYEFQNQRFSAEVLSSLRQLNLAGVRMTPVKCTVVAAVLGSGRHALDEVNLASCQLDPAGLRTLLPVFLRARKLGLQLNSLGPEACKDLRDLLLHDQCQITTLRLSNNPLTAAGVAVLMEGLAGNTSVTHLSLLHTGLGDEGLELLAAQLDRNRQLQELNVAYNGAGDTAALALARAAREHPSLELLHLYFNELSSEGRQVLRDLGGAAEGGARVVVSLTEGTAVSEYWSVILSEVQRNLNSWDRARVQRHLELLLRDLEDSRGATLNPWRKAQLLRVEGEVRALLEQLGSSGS
For experiment [3], the target named is T1, MBP–NLRX1 (87–975 amino acids). In words: biotin-CoASH pull-down and competition with CoASH, immunoblot. In kind it is binding. The settings on record: labelled compound; unlabelled CoASH as competitor.
Experiment [4] has the same target. In words: biotin-acyl-CoA pull-down, immunoblot. The experiment is classed as binding. The settings on record: labelled compound (biotin conjugate).

T1 sequence (Q86UT6 87-975): as above

Take `CC(=O)SCCNC(=O)CCNC(=O)[C@H](O)C(C)(C)COP(=O)(O)OP(=O)(O)OC[C@H]1O[C@@H](n2cnc3c(N)ncnc32)[C@H](O)[C@@H]1OP(=O)(O)O` [AcCoA]: the “competition of AcCoA with biotin-AcCoA pull-down, immunoblot” value in experiment [1] is “increasing concentrations of AcCoA competed with biotin–AcCoA for NLRX1 binding”. For the same molecule, in experiment [2], the thermal shift entry is “AcCoA addition substantially increased the stability of NLRX1 protein level compared with CoASH”.
For `CC(C)(COP(=O)(O)OP(=O)(O)OC[C@H]1O[C@@H](n2cnc3c(N)ncnc32)[C@H](O)[C@@H]1OP(=O)(O)O)[C@@H](O)C(=O)NCCC(=O)NCCS` [CoASH], in experiment [3], the “biotin-CoASH pull-down and competition with CoASH, immunoblot” value is “CoASH was associated with recombinant NLRX1 to a lesser extent than AcCoA was”.
As for `CC(C)(COP(=O)(O)OP(=O)(O)OC[C@H]1O[C@@H](n2cnc3c(N)ncnc32)[C@H](O)[C@@H]1OP(=O)(O)O)[C@@H](O)C(=O)NCCC(=O)NCCSC(=O)CC(=O)O` [malonyl-CoA], in experiment [4], the “biotin-acyl-CoA pull-down, immunoblot” value was “no interaction between recombinant NLRX1 and malonyl-CoA or succinyl-CoA was detected”.
Consider `CC(C)(COP(=O)(O)OP(=O)(O)OC[C@H]1O[C@@H](n2cnc3c(N)ncnc32)[C@H](O)[C@@H]1OP(=O)(O)O)[C@@H](O)C(=O)NCCC(=O)NCCSC(=O)CCC(=O)O` [succinyl-CoA], for which the “biotin-acyl-CoA pull-down, immunoblot” value in experiment [4] was “no interaction between recombinant NLRX1 and malonyl-CoA or succinyl-CoA was detected”.
